Measurements as given in PubChem BioAssay AID1963451 (Molecular Pharmacology Branch, DTP, NCI, 2024).

Tested on: 521955-158-R6-J3-PDC complex spheroid growth, % test/control
Experiment: Anticancer human tumor 521955-158-R6-J3-PDC patient-derived pancreatic carcinoma cell line growth inhibition [Asc]
Details: for IC50: curve of first compound; for viability, T/C: stronger effect = lower value; active = viability on the fitted dose curve at most 10% of control; inactive = the rest
Outline: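 Tumor cells were grown as multicellular spheroids with stromal HUVEC and mesenchymal stem cells and treated singly or in combination. Concentrations fell in half-log steps from the clinical Cmax, or from 10 microM where none was known.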

[1] = second compound 0.0316 µM, first compound 0.00316 µM
[2] = second compound 0.0316 µM, first compound 0.01 µM
[3] = second compound 0.0316 µM, first compound 0.0316 µM
[4] = second compound 0.0316 µM, first compound 0.1 µM
[5] = second compound 0.1 µM, first compound 0.00316 µM
[6] = second compound 0.1 µM, first compound 0.01 µM
[7] = second compound 0.1 µM, first compound 0.0316 µM
[8] = second compound 0.1 µM, first compound 0.1 µM
[9] = second compound 0.316 µM, first compound 0.00316 µM
[10] = second compound 0.316 µM, first compound 0.01 µM
[11] = second compound 0.316 µM, first compound 0.0316 µM
[12] = second compound 0.316 µM, first compound 0.1 µM
[13] = second compound 1 µM, first compound 0.00316 µM
[14] = second compound 1 µM, first compound 0.01 µM
[15] = second compound 1 µM, first compound 0.0316 µM
[16] = second compound 1 µM, first compound 0.1 µM
[17] = second compound 3.16 µM, first compound 0.00316 µM
[18] = second compound 3.16 µM, first compound 0.01 µM
[19] = second compound 3.16 µM, first compound 0.0316 µM
[20] = second compound 3.16 µM, first compound 0.1 µM
[21] = second compound 10 µM, first compound 0.00316 µM
[22] = second compound 10 µM, first compound 0.01 µM
[23] = second compound 10 µM, first compound 0.0316 µM
[24] = second compound 10 µM, first compound 0.1 µM
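Also: spheroids exposed to compounds for 7 days.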
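For viability, T/C in this document: 100% = DMSO vehicle control wells.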

Cn1ncnc1[C@H]1c2n[nH]c(=O)c3cc(F)cc(c23)N[C@@H]1c1ccc(F)cc1 + Cc1c(S(C)(=O)=O)c(-c2cc(F)cc(N3CCN(c4ccc(NS(=O)(=O)c5ccc(NC(CCN6CCC(C(=O)OCCCP(=O)(O)O)CC6)CSc6ccccc6)c(S(=O)(=O)C(F)(F)F)c5)cc4)CC3)c2)c(-c2ccc(Cl)cc2)n1C(C)C
inactive: viability, T/C (second compound 0.0316 µM, first compound 0.000316 µM) 84.8% | viability, T/C (second compound 0.0316 µM, first compound 0.001 µM) 92.7% | viability, T/C [1] 70.5% | viability, T/C [2] 82% | viability, T/C [3] 77% | viability, T/C [4] 68.9% | viability, T/C (second compound 0.1 µM, first compound 0.000316 µM) 86.3% | viability, T/C (second compound 0.1 µM, first compound 0.001 µM) 75.1% | viability, T/C [5] 75.3% | viability, T/C [6] 82.3% | viability, T/C [7] 61% | viability, T/C [8] 67.6% | viability, T/C (second compound 0.316 µM, first compound 0.000316 µM) 53.4% | viability, T/C (second compound 0.316 µM, first compound 0.001 µM) 54.2% | viability, T/C [9] 52.5% | viability, T/C [10] 44.4% | viability, T/C [11] 40.8% | viability, T/C [12] 51.5% | viability, T/C (second compound 1 µM, first compound 0.000316 µM) 35.1% | viability, T/C (second compound 1 µM, first compound 0.001 µM) 32.7% | viability, T/C [13] 41.4% | viability, T/C [14] 29.8% | viability, T/C [15] 35% | viability, T/C [16] 40.9% | viability, T/C (second compound 3.16 µM, first compound 0.000316 µM) 23% | viability, T/C (second compound 3.16 µM, first compound 0.001 µM) 24.3% | viability, T/C [17] 21.1% | viability, T/C [18] 19.9% | viability, T/C [19] 20.8% | viability, T/C [20] 16.4% | viability, T/C (second compound 10 µM, first compound 0.000316 µM) 14.8% | viability, T/C (second compound 10 µM, first compound 0.001 µM) 17.9% | viability, T/C [21] 26.6% | viability, T/C [22] 15.5% | viability, T/C [23] 15% | viability, T/C [24] 11%
< 0.316 nM: IC50 (second compound 1 µM) | IC50 (second compound 3.16 µM) | IC50 (second compound 10 µM)
> 100 nM: IC50 (second compound 0.0316 µM) | IC50 (second compound 0.1 µM)
4.81 nM: IC50 (second compound 0.316 µM)

NC1CCC(NC2CC2c2ccccc2)CC1 (stereo unspecified) + CCN1C(C(=O)NC23CCC(C(=O)O)(CC2)CC3)C(c2cccc(Cl)c2F)C2(C(=O)Nc3cc(Cl)ccc32)C12CCCCC2
inactive: viability, T/C (second compound 0.00949 µM, first compound 0.000316 µM) 112% | viability, T/C (second compound 0.00949 µM, first compound 0.001 µM) 104% | viability, T/C (second compound 0.00949 µM, first compound 0.00316 µM) 90.5% | viability, T/C (second compound 0.00949 µM, first compound 0.01 µM) 105% | viability, T/C (second compound 0.00949 µM, first compound 0.0316 µM) 85.3% | viability, T/C (second compound 0.00949 µM, first compound 0.1 µM) 108% | viability, T/C (second compound 0.03 µM, first compound 0.000316 µM) 111% | viability, T/C (second compound 0.03 µM, first compound 0.001 µM) 106% | viability, T/C (second compound 0.03 µM, first compound 0.00316 µM) 100% | viability, T/C (second compound 0.03 µM, first compound 0.01 µM) 99.6% | viability, T/C (second compound 0.03 µM, first compound 0.0316 µM) 105% | viability, T/C (second compound 0.03 µM, first compound 0.1 µM) 84.7% | viability, T/C (second compound 0.0949 µM, first compound 0.000316 µM) 108% | viability, T/C (second compound 0.0949 µM, first compound 0.001 µM) 118% | viability, T/C (second compound 0.0949 µM, first compound 0.00316 µM) 120% | viability, T/C (second compound 0.0949 µM, first compound 0.01 µM) 127% | viability, T/C (second compound 0.0949 µM, first compound 0.0316 µM) 99.6% | viability, T/C (second compound 0.0949 µM, first compound 0.1 µM) 99.9% | viability, T/C (second compound 0.3 µM, first compound 0.000316 µM) 94.6% | viability, T/C (second compound 0.3 µM, first compound 0.001 µM) 108% | viability, T/C (second compound 0.3 µM, first compound 0.00316 µM) 111% | viability, T/C (second compound 0.3 µM, first compound 0.01 µM) 101% | viability, T/C (second compound 0.3 µM, first compound 0.0316 µM) 110% | viability, T/C (second compound 0.3 µM, first compound 0.1 µM) 102% | viability, T/C (second compound 0.949 µM, first compound 0.000316 µM) 101% | viability, T/C (second compound 0.949 µM, first compound 0.001 µM) 125% | viability, T/C (second compound 0.949 µM, first compound 0.00316 µM) 114% | viability, T/C (second compound 0.949 µM, first compound 0.01 µM) 105% | viability, T/C (second compound 0.949 µM, first compound 0.0316 µM) 113% | viability, T/C (second compound 0.949 µM, first compound 0.1 µM) 96% | viability, T/C (second compound 3 µM, first compound 0.000316 µM) 113% | viability, T/C (second compound 3 µM, first compound 0.001 µM) 109% | viability, T/C (second compound 3 µM, first compound 0.00316 µM) 128% | viability, T/C (second compound 3 µM, first compound 0.01 µM) 104% | viability, T/C (second compound 3 µM, first compound 0.0316 µM) 111% | viability, T/C (second compound 3 µM, first compound 0.1 µM) 88.7%
> 100 nM: IC50 (second compound 0.00949 µM) | IC50 (second compound 0.03 µM) | IC50 (second compound 0.0949 µM) | IC50 (second compound 0.3 µM) | IC50 (second compound 0.949 µM) | IC50 (second compound 3 µM)

O=C(c1ccc(F)c(F)c1Nc1ccc(I)cc1F)N1CC(O)([C@@H]2CCCCN2)C1 + Cc1c(S(C)(=O)=O)c(-c2cc(F)cc(N3CCN(c4ccc(NS(=O)(=O)c5ccc(NC(CCN6CCC(C(=O)OCCCP(=O)(O)O)CC6)CSc6ccccc6)c(S(=O)(=O)C(F)(F)F)c5)cc4)CC3)c2)c(-c2ccc(Cl)cc2)n1C(C)C
< 3.16 nM: IC50 (second compound 0.316 µM) | IC50 (second compound 1 µM) | IC50 (second compound 3.16 µM) | IC50 (second compound 10 µM)
active: viability, T/C (second compound 0.316 µM, first compound 1 µM) 5.24% | viability, T/C (second compound 1 µM, first compound 0.316 µM) 6.12% | viability, T/C (second compound 1 µM, first compound 1 µM) 1.37% | viability, T/C (second compound 3.16 µM, first compound 0.316 µM) 1.36% | viability, T/C (second compound 3.16 µM, first compound 1 µM) 0.4% | viability, T/C [23] 7.74% | viability, T/C [24] 3.48% | viability, T/C (second compound 10 µM, first compound 0.316 µM) 1.23% | viability, T/C (second compound 10 µM, first compound 1 µM) 2.45%
inactive: viability, T/C [1] 78.6% | viability, T/C [2] 83.5% | viability, T/C [3] 97.3% | viability, T/C [4] 85% | viability, T/C (second compound 0.0316 µM, first compound 0.316 µM) 42.2% | viability, T/C (second compound 0.0316 µM, first compound 1 µM) 26.7% | viability, T/C [5] 79.8% | viability, T/C [6] 69.1% | viability, T/C [7] 84.2% | viability, T/C [8] 59.5% | viability, T/C (second compound 0.1 µM, first compound 0.316 µM) 35.3% | viability, T/C (second compound 0.1 µM, first compound 1 µM) 17.9% | viability, T/C [9] 47.8% | viability, T/C [10] 46.7% | viability, T/C [11] 43.1% | viability, T/C [12] 36.8% | viability, T/C (second compound 0.316 µM, first compound 0.316 µM) 20.2% | viability, T/C [13] 35.3% | viability, T/C [14] 39.4% | viability, T/C [15] 29.7% | viability, T/C [16] 20.5% | viability, T/C [17] 19.1% | viability, T/C [18] 25% | viability, T/C [19] 19.6% | viability, T/C [20] 6.55% | viability, T/C [21] 14.6% | viability, T/C [22] 11.5%
166 nM: IC50 (second compound 0.1 µM)
257 nM: IC50 (second compound 0.0316 µM)
